In the supplement of paper PMC6045584:
± gives the standard deviation of the averaged measurements.

Tests used:
FLAVOPIRIDOL = compound: CN1CC[C@H](c2c(O)cc(O)c3c(=O)cc(-c4ccccc4Cl)oc23)[C@H](O)C1 [FLAVOPIRIDOL]; assay: surviving fraction relative to DMSO-only wells; higher = less growth inhibition; conditions: exposure time: 5 days
Summary of the method: (§1)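 For each tumour cell line, log-phase cells were put into 384-well plates at 250–500 cells per well, then after 24 hours exposed continuously for five days to inhibitors at 0.5, 1, 5, 10, 50, 100, 500 and 1000 nM. Viability was assessed by CellTiter-Glo luminescence, with surviving fraction expressed relative to the median of DMSO-only wells. Lines were screened three times and retained only if replicate Pearson r exceeded 0.7 and median Z' exceeded 0.3.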

DOXORUBICIN = compound: COc1cccc2c1C(=O)c1c(O)c3c(c(O)c1C2=O)C[C@@](O)(C(=O)CO)C[C@@H]3O[C@H]1C[C@H](N)[C@H](O)[C@H](C)O1 [DOXORUBICIN]; assay: as above; conditions: exposure time: 5 days
Summary of the method: as §1

Test System | surviving fraction (FLAVOPIRIDOL; 0.5 nM) | surviving fraction (FLAVOPIRIDOL; 1 nM) | surviving fraction (FLAVOPIRIDOL; 5 nM) | surviving fraction (FLAVOPIRIDOL; 10 nM) | surviving fraction (FLAVOPIRIDOL; 50 nM) | surviving fraction (FLAVOPIRIDOL; 100 nM) | surviving fraction (FLAVOPIRIDOL; 500 nM) | surviving fraction (FLAVOPIRIDOL; 1000 nM) | surviving fraction (DOXORUBICIN; 0.5 nM) | surviving fraction (DOXORUBICIN; 1 nM) | surviving fraction (DOXORUBICIN; 5 nM) | surviving fraction (DOXORUBICIN; 10 nM) | surviving fraction (DOXORUBICIN; 50 nM) | surviving fraction (DOXORUBICIN; 100 nM) | surviving fraction (DOXORUBICIN; 500 nM) | surviving fraction (DOXORUBICIN; 1000 nM)
MDAMB361 BREAST | 0.919 ± 0.18 | 0.814 ± 0.066 | 0.841 ± 0.05 | 0.861 ± 0.13 | 0.937 ± 0.13 | 0.719 ± 0.039 | 0.223 ± 0.021 | 0.229 ± 0.022 | 0.794 ± 0.089 | 0.997 ± 0.12 | 0.906 ± 0.013 | 0.856 ± 0.074 | 0.746 ± 0.038 | 0.831 ± 0.1 | 0.387 ± 0.034 | 0.0543 ± 0.013
JURKAT HAEMATOPOIETIC AND LYMPHOID TISSUE | 1.04 ± 0.018 | 1.07 ± 0.046 | 1.05 ± 0.026 | 1.04 ± 0.042 | 0.708 ± 0.022 | 0.119 ± 0.0035 | 0.031 ± 0.001 | 0.0303 ± 0.0011 | 1.05 ± 0.023 | 1.049 ± 0.0078 | 0.61 ± 0.035 | 0.129 ± 0.004 | 0.0323 ± 0.00058 | 0.0293 ± 0.00058 | 0.027 | 0.0297 ± 0.00058
SCC003 HEADNECK | 1.06 ± 0.061 | 1.1 ± 0.083 | 1.12 ± 0.055 | 0.987 ± 0.084 | 0.667 ± 0.032 | 0.392 ± 0.14 | 0.0627 ± 0.0064 | 0.0573 ± 0.0032 | 0.959 ± 0.12 | 1.04 ± 0.12 | 1.02 ± 0.1 | 0.855 ± 0.098 | 0.396 ± 0.046 | 0.431 ± 0.065 | 0.11 ± 0.025 | 0.0417 ± 0.0086
HCC78 LUNG | 1.08 ± 0.18 | 0.94 ± 0.032 | 0.898 ± 0.11 | 0.809 ± 0.25 | 0.151 ± 0.032 | 0.0467 ± 0.0059 | 0.0207 ± 0.00058 | 0.02 | 0.894 ± 0.24 | 0.733 ± 0.17 | 0.63 ± 0.1 | 0.538 ± 0.083 | 0.0747 ± 0.013 | 0.0363 ± 0.0042 | 0.0317 ± 0.0015 | 0.0217 ± 0.0042
MFM223 BREAST | 1.45 ± 0.57 | 1.45 ± 0.64 | 1.46 ± 0.61 | 1.25 ± 0.4 | 0.351 ± 0.032 | 0.119 ± 0.045 | 0.0438 ± 0.021 | 0.0642 ± 0.061 | 1.11 ± 0.045 | 1.05 ± 0.032 | 0.975 ± 0.069 | 0.702 ± 0.12 | 0.669 ± 0.082 | 0.221 ± 0.013 | 0.079 ± 0.0053 | 0.052 ± 0.007
HCC202 BREAST | 0.988 ± 0.55 | 1.17 ± 0.34 | 1.13 ± 0.22 | 1.06 ± 0.31 | 0.847 ± 0.13 | 0.304 ± 0.012 | 0.0405 ± 0.00071 | 0.0405 ± 0.00071 | 1.2 ± 0.18 | 1.26 ± 0.26 | 0.896 ± 0.058 | 1.04 ± 0.49 | 0.697 ± 0.069 | 0.457 ± 0.065 | 0.0987 ± 0.019 | 0.0423 ± 0.0078
HCC1395 BREAST | 1 ± 0.21 | 1.13 ± 0.062 | 1.2 ± 0.097 | 1.311 ± 0.006 | 1.3 ± 0.16 | 0.992 ± 0.14 | 0.51 ± 0.36 | 0.419 ± 0.19 | 0.926 ± 0.18 | 1.11 ± 0.18 | 1.03 ± 0.036 | 1.19 ± 0.11 | 0.928 ± 0.11 | 1.07 ± 0.08 | 0.693 ± 0.085 | 0.808 ± 0.091
BT20 BREAST | 1.21 ± 0.073 | 1.16 ± 0.022 | 1.17 ± 0.1 | 1.013 ± 0.0035 | 0.742 ± 0.12 | 0.359 ± 0.012 | 0.038 ± 0.0062 | 0.0367 ± 0.004 | 1.1 ± 0.033 | 1.02 ± 0.11 | 0.823 ± 0.034 | 0.469 ± 0.07 | 0.187 ± 0.019 | 0.191 ± 0.025 | 0.042 ± 0.01 | 0.037 ± 0.0056
U2OS BONE | 1.04 ± 0.049 | 1.03 ± 0.042 | 1.1 ± 0.028 | 1.09 ± 0.053 | 0.956 ± 0.017 | 0.112 ± 0.015 | 0.033 ± 0.0017 | 0.03 ± 0.001 | 1.04 ± 0.053 | 1.01 ± 0.015 | 0.86 ± 0.018 | 0.72 ± 0.05 | 0.606 ± 0.037 | 0.376 ± 0.013 | 0.04 ± 0.0017 | 0.0373 ± 0.0021
SG31 HEADNECK | 1.51 ± 0.26 | 1.23 ± 0.055 | 0.964 ± 0.096 | 0.988 ± 0.053 | 0.483 ± 0.057 | 0.147 ± 0.038 | 0.0443 ± 0.024 | 0.027 ± 0.0046 | 1.1 ± 0.095 | 1.03 ± 0.035 | 0.818 ± 0.035 | 0.717 ± 0.11 | 0.556 ± 0.03 | 0.495 ± 0.037 | 0.0787 ± 0.02 | 0.0363 ± 0.01
OS25HAL BONE | 1.01 ± 0.035 | 0.996 ± 0.058 | 1.12 ± 0.052 | 1.06 ± 0.021 | 1.1 ± 0.036 | 0.101 ± 0.015 | 0.048 ± 0.013 | 0.0443 ± 0.012 | 0.982 ± 0.016 | 0.974 ± 0.013 | 0.97033 ± 0.00058 | 0.965 ± 0.0076 | 0.258 ± 0.033 | 0.151 ± 0.01 | 0.0337 ± 0.0047 | 0.038 ± 0.003
SCC36 HEADNECK | 0.982 ± 0.1 | 0.974 ± 0.062 | 1.14 ± 0.16 | 1.24 ± 0.15 | 0.962 ± 0.086 | 0.405 ± 0.0093 | 0.036 ± 0.0035 | 0.032 ± 0.001 | 0.694 ± 0.073 | 1.13 ± 0.046 | 0.903 ± 0.001 | 0.795 ± 0.087 | 0.426 ± 0.024 | 0.5 ± 0.069 | 0.035 ± 0.0027 | 0.034 ± 0.002
SUM44 BREAST | 1.14 ± 0.35 | 1.17 ± 0.16 | 1.22 ± 0.23 | 1.22 ± 0.27 | 1.08 ± 0.24 | 0.283 ± 0.012 | 0.119 ± 0.039 | 0.104 ± 0.036 | 0.938 ± 0.054 | 0.887 ± 0.041 | 0.987 ± 0.044 | 0.895 ± 0.022 | 0.859 ± 0.06 | 0.811 ± 0.051 | 0.14 ± 0.021 | 0.054 ± 0.0027
SG32 HEADNECK | 1.14 ± 0.2 | 1.28 ± 0.092 | 1.07 ± 0.24 | 0.823 ± 0.14 | 0.227 ± 0.063 | 0.048 ± 0.01 | 0.0283 ± 0.013 | 0.0237 ± 0.0046 | 1.19 ± 0.12 | 1.07 ± 0.27 | 0.828 ± 0.14 | 0.563 ± 0.099 | 0.414 ± 0.04 | 0.194 ± 0.019 | 0.04 ± 0.017 | 0.0313 ± 0.0081
SUM159 BREAST | 1.08 ± 0.024 | 1.08 ± 0.021 | 1.09 ± 0.014 | 1.049 ± 0.0055 | 1.08 ± 0.026 | 0.44 ± 0.082 | 0.0913 ± 0.0097 | 0.0957 ± 0.0072 | 1.1 ± 0.14 | 1.08 ± 0.11 | 1.05 ± 0.11 | 0.964 ± 0.043 | 0.176 ± 0.045 | 0.173 ± 0.027 | 0.0397 ± 0.0021 | 0.039 ± 0.002
HCC1806 BREAST | 0.833 ± 0.14 | 0.959 ± 0.059 | 1.03 ± 0.08 | 1.06 ± 0.062 | 0.586 ± 0.038 | 0.093 ± 0.0078 | 0.0207 ± 0.00058 | 0.0217 ± 0.00058 | 0.963 ± 0.033 | 1.01 ± 0.076 | 0.75 ± 0.068 | 0.369 ± 0.039 | 0.102 ± 0.013 | 0.0793 ± 0.005 | 0.0243 ± 0.0011 | 0.0257 ± 0.0011
NY BONE | 0.984 ± 0.015 | 0.977 ± 0.017 | 1.05 ± 0.027 | 1.01 ± 0.05 | 0.813 ± 0.071 | 0.0513 ± 0.01 | 0.025 ± 0.001 | 0.024 ± 0.001 | 0.959 ± 0.019 | 0.966 ± 0.013 | 0.981 ± 0.015 | 0.876 ± 0.058 | 0.294 ± 0.015 | 0.201 ± 0.0044 | 0.0617 ± 0.004 | 0.0443 ± 0.0057
RDES SOFT TISSUE | 1.36 ± 0.11 | 1.3 ± 0.12 | 1.39 ± 0.07 | 1.44 ± 0.059 | 1.66 ± 0.12 | 0.945 ± 0.2 | 0.0467 ± 0.0025 | 0.0383 ± 0.0025 | 1.15 ± 0.035 | 1.15 ± 0.061 | 1.04 ± 0.05 | 1.25 ± 0.14 | 0.16 ± 0.021 | 0.0457 ± 0.004 | 0.087 ± 0.0098 | 0.0413 ± 0.0031
SNU475 LIVER | 1.05 ± 0.041 | 1 ± 0.032 | 1.09 ± 0.015 | 1.07 ± 0.072 | 1.02 ± 0.026 | 0.438 ± 0.048 | 0.0423 ± 0.0046 | 0.0407 ± 0.0029 | 0.958 ± 0.051 | 0.9777 ± 0.0038 | 0.982 ± 0.018 | 0.958 ± 0.059 | 0.484 ± 0.034 | 0.392 ± 0.015 | 0.3 ± 0.032 | 0.192 ± 0.012
